Reference: patent US7008636B2, “2,3,5-substituted biphenyls useful in the treatment of insulin resistance and hyperglycemia” (Wyeth, priority 1998, dated 2006)
pIC50: −log10 of the molar value. Structures can show the parent of a compound that is named as a salt.

Target: T1, recombinant, human protein tyrosine phosphatase (PTP) 1B (hPTP1B) (Homo sapiens, UniProt P18031)
T1 construct: made in house
T1 sequence (P18031 1-435): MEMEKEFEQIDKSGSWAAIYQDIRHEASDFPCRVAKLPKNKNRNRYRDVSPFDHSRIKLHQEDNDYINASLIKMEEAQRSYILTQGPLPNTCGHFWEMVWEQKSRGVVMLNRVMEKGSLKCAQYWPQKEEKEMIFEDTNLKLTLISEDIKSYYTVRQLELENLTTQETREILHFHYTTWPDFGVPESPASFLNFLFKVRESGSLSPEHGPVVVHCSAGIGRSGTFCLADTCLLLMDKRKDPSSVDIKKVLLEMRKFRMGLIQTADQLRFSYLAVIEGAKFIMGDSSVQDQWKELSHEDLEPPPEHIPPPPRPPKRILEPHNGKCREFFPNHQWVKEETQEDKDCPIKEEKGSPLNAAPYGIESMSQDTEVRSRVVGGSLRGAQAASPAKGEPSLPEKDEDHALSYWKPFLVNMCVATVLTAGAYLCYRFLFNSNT
Experiment: Inhibition of tri-phosphorylated insulin receptor dodecaphosphopeptide dephosphorylation by hPTP1B
Format: biochemical
Conditions: 50 μM IR triphosphopeptide substrate, 5 min preincubation and 5 min reaction at 37° C., malachite green-ammonium molybdate phosphate detection

| Structure (SMILES) | pIC50 |
| --- | --- |
| CCCCCCCCCCCCNC(=O)c1cc(-c2cccc(Cl)c2)c(OCC(=O)O)c(-c2cccc(Cl)c2)c1 [Example 1, (3,3″-Dichloro-5′-dodecylcarbamoyl-[1,1′;3′,1″]terphenyl-2′-yloxy)-acetic acid] | 7.20 |
| CCCCCCCCCCCCNC(=O)c1cc(Br)c(OCC(=O)O)c(-c2cccc(Cl)c2)c1 [Example 2, (3-Bromo-3′-chloro-5-dodecylcarbamoyl-biphenyl-2-yloxy)acetic acid] | 6.74 |
| O=C(O)COc1c(-c2cccc(Cl)c2)cc(C(=O)NCCCCCCCCc2ccccc2)cc1-c1cccc(Cl)c1 [Example 3, [3,3″-Dichloro-5′-(8-phenyl-octylcarbamoyl)-[1,1′;3′,1″]terphenyl-2′-yloxy]-acetic acid] | 6.95 |
| CCCCCCCCCCCCNC(=O)c1cc(-c2cccc(Cl)c2)c(OCCOCC(=O)O)c(-c2cccc(Cl)c2)c1 [Example 12] | 7.82 |
| CCCCCCCCCCCCNC(=O)c1cc(-c2ccc(F)c(Cl)c2)c(OCC(=O)O)c(-c2ccc(F)c(Cl)c2)c1 [Example 24, (3,3″-Dichloro-5′-dodecylcarbamoyl-4,4″-difluoro[1,1′;3′,1″]terphenyl(-2′-yloxy)-acetic acid sodium salt] | 7.36 |
| CCCCCCCCCCCCNC(=O)c1cc(Br)c(OCC(=O)O)c(-c2ccc(OC)cc2)c1 [Example 31, (3-Bromo-5-dodecylcarbamoyl-4′-methoxy-biphenyl-2-yloxy)-acetic acid] | 6.69 |
| O=C(O)COc1c(-c2cccc(C(F)(F)F)c2)cc(C(=O)NCCCCCCCCc2ccccc2)cc1-c1ccccc1F [Example 108, [2″-Fluoro-5′-(8-phenyl-octylcarbamoyl)-3-trifluoromethyl-[1,1′;3′,1″]terphenyl-2′-yloxy)-acetic acid] | 6.35 |
| CCCCCCCCCCCCNC(=O)c1cc(-c2cccc(C(F)(F)F)c2)c(OCC(=O)O)c(-c2ccccc2F)c1 [Example 109, (5′-Dodecylcarbamoyl-2″-fluoro-3-trifluoromethyl-[1,1′;3′,1″]terphenyl-2′-yloxy)-acetic acid] | 6.73 |
| O=C(O)COc1c(-c2cccc(Cl)c2)cc(C(=O)NCCCCCCCCc2ccccc2)cc1-c1ccccc1F [Example 115, [3″-Chloro-2-fluoro-5′-(8-phenyl-octylcarbamoyl)-[1,1′;3′,1″]terphenyl-2′-yloxy]-acetic acid] | 6.54 |
| CN(CCCCCCCCc1ccccc1)C(=O)c1cc(-c2ccccc2F)c(OCC(=O)O)c(-c2ccccc2F)c1 [Example 118, {2,2″-Difluoro-5′-[methyl-(8-phenyl-octyl)-carbamoyl]-[1,1′;3′,1″]terphenyl-2′-yloxy}-acetic acid] | 6.37 |
| O=C(O)COc1c(-c2cccc(Cl)c2)cc(C(=O)NCCCCCCCCCCCCOc2ccc(F)cc2F)cc1-c1cccc(Cl)c1 [Example 121, {3,3″-Dichloro-5′-[12-(2,4-difluoro-phenoxy)-dodecylcarbamoyl]-[1,1′;3′,1″]terphenyl-2′-yloxy}-acetic acid] | 7.82 |
| O=C(O)COc1c(-c2cccc(Cl)c2)cc(C(=O)NCCCCCCCCOCc2ccc(C(F)(F)F)cc2)cc1-c1cccc(Cl)c1 [Example 122, {3,3″-Dichloro-5′-[8-(4-trifluoromethyl-benzyloxy)-octylcarbamoyl]-[1,1′;3′,1″]terphenyl-2′-yloxy}-acetic acid] | 7.04 |
| O=C(O)COc1c(-c2cccc(Cl)c2)cc(C(=O)N(C2CCCCC2)C2CCCCC2)cc1-c1cccc(Cl)c1 [Example 124, (3,3″-Dichloro-5′-dicyclohexylcarbamoyl-[1,1′;3′,1″]terphenyl-2′-yloxy)-acetic acid] | 6.23 |
| O=C(NCCCCCCCc1ccccc1)c1cc(-c2cccc(C(F)(F)F)c2)c(OCP(=O)(O)O)c(-c2cccc(C(F)(F)F)c2)c1 [Example 128, [5′-(7-Phenyl-heptylcarbamoyl)-3,3″-bis-trifluoromethyl-[1,1′:3′,1″]terphenyl-2′-yloxymethyl]-phosphonic acid] | 6.58 |
| CCCCCCCCCCCCNC(=O)c1cc(Br)c(OCC(=O)O)c(-c2ccc(F)c(Cl)c2)c1 [Example 135, (3-Bromo-3′-chloro-5-dodecylcarbamoyl-4′-fluoro-biphenyl-2-yloxy)acetic acid] | 6.89 |

Continued by rising pIC50, values first:

| pIC50 | Structure (SMILES) |
| --- | --- |
| 6.15 | O=C(O)COc1c(-c2ccccc2F)cc(C(=O)NCCCCCCCCc2ccccc2)cc1-c1ccccc1F [Example 111, [2,2″-Difluoro-5′-(8-phenyl-octylcarbamoyl)-[1,1′;3′,1″]terphenyl-2′-yloxy)-acetic acid] |
| 6.20 | O=C(O)COc1c(-c2cccc(Cl)c2)cc(C(=O)NCCCCCCCC[S+]([O-])c2ccc(Cl)cc2)cc1-c1cccc(Cl)c1 (centres unmarked) [Example 119, {3,3″-Dichloro-5′-[8-(4-chloro-benzenesulfinyl)-octylcarbamoyl]-[1,1′;3′,1″]terphenyl-2′-yloxy}-acetic acid] |
| 6.34 | O=C(O)COc1ccc(C(=O)NCCCCCCCCc2ccccc2)cc1-c1ccc(F)c(Cl)c1 [Example 136, [3′-Chloro-4′-fluoro-5-(8-phenyl-octylcarbamoyl)-biphenyl-2-yloxy]acetic acid] |
| 6.52 | CCCCCCCCCCCCNC(=O)c1cc(-c2ccccc2F)c(OCC(=O)O)c(-c2ccccc2F)c1 [Example 110, (5′-Dodecylcarbamoyl-2,2″-difluoro-[1,1′;3′,1″]terphenyl-2′-yloxy)-acetic acid] |
| 6.60 | CCCCCCCCOc1cc(-c2cccc(OC)c2)c(OCC(=O)O)c(-c2cccc(OC)c2)c1 [Example 50, (3,3″-Dimethoxy-5′-octyloxy-[1,1′;3′,1″]terphenyl-2′-yloxy)acetic acid] |
| 6.91 | O=C(O)COc1c(-c2ccc(F)c(Cl)c2)cc(C(=O)NCCCCCCCCc2ccccc2)cc1-c1ccc(F)c(Cl)c1 [Example 25, [3,3″-Dichloro-4-4″difluoro-5′-(8-phenyl-octylcarbamoyl)[-1,1′;3′,1″]terphenyl-2′-yloxy]-acetic acid] |
| 6.99 | COc1ccc(-c2cc(-c3ccc(C(=O)NCCCCCCCc4ccccc4)cc3)cc(-c3ccc(OC)cc3)c2OCc2ccc(C(=O)O)cc2)cc1 [Example 133] |
| 7.24 | O=C(O)c1ccc(COc2c(-c3cccc(C(F)(F)F)c3)cc(C(=O)NCCCCCCCc3ccccc3)cc2-c2cccc(C(F)(F)F)c2)cc1 [Example 134, 4-[5′-(7-Phenyl-heptylcarbamoyl)-3,3″-bis-trifluoromethyl-[1,1′:3′,1″]terphenyl-2′-yloxymethyl]-benzoic acid] |
| 7.25 | O=C(NCCCCCCCc1ccccc1)c1cc(-c2cccc(C(F)(F)F)c2)c(OCc2ccc(S(=O)(=O)O)cc2)c(-c2cccc(C(F)(F)F)c2)c1 [Example 130, 4-[5′-(7-Phenyl-heptylcarbamoyl)-3,3″-bis-trifluoromethyl-[1,1′3′,1″]terphenyl-2′-yloxymethyl]-benzenesulfonic acid] |
| 7.26 | CCCCCCCCCCCCNC(=O)c1cc(-c2cccc(Cl)c2)c(OCC(=O)O)c(-c2ccccc2F)c1 [Example 114, (3″-Chloro-5′-dodecylcarbamoyl-2-fluoro-[1,1′;3′,1″]terphenyl-2′-yloxy)-acetic acid] |
| 7.28 | O=C(O)COc1c(-c2cccc(Cl)c2)cc(C(=O)NCCCCCCCCOc2ccc(F)cc2F)cc1-c1cccc(Cl)c1 [Example 120, {3,3″-Dichloro-5′-[8-(2,4-difluoro-phenoxy)-octylcarbamoyl]-[1,1′;3′,1″]terphenyl-2′-yloxy}-acetic acid] |
